Measurements as given in US10414754B2, “Indolizine compounds, a process for their preparation and pharmaceutical compositions containing them” (LES LABORATOIRES SERVIER, priority 2013, dated 2019).
Structures can show the parent of a compound that is named as a salt.

Legend:
Bcl-2 protein = target: T1, Bcl-2 protein (histag-Bcl-2, UniProtKB P10415) (Homo sapiens, UniProt P10415); assay: Inhibition of Bcl-2 by the fluorescence polarisation technique; type: binding; settings: fluorescence polarisation, 2 hours incubation; read-out: IC50 (nM) Bcl-2 FP
T1 construct: His tag
Procedure: The fluorescence polarisation tests were carried out on microplates (384 wells). The Bcl-2 protein, labelled (histag-Bcl-2 such that Bcl-2 corresponds to the UniProtKB® primary accession number: P10415), at a final concentration of 2.50×10^−8 M, is mixed with a fluorescent peptide (Fluorescein-[…]), at a final concentration of 1.00×10^−8M in a buffer solution (Hepes 10 mM, NaCl 150 mM, Tween20 0.05%, pH 7.4), in the presence or absence of increasing concentrations of test compounds. After incubation for 2 hours, the fluorescence polarisation is measured.

[1] = test system: RS4;11 leukaemia tumour line; assay: In vitro cytotoxicity (MTT) on RS4;11; type: cell-based; settings: Homo sapiens; RS4;11 cells, 48 hours exposure
Procedure: The cytotoxicity studies were carried out on the RS4;11 leukaemia tumour line.
The cells are distributed onto microplates and exposed to the test compounds for 48 hours.
The cell viability is then quantified by a colorimetric assay, the Microculture Tetrazolium Assay (Cancer Res., 1987, 47, 939-942).

T1 sequence (P10415 whole entry): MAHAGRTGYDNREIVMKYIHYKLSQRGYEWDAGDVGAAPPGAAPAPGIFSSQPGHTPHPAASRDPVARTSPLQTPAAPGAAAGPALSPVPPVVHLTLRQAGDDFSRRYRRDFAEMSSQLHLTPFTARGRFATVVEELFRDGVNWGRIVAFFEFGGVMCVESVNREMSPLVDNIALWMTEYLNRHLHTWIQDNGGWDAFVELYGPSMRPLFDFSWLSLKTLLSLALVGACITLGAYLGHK

| SMILES | IC50 (Bcl-2 protein) [nM] | IC50 [1] [nM] |
| --- | --- | --- |
| C[C@@H]1Cc2ccccc2CN1C(=O)c1cc2c(cc1-c1cc(C(=O)N(c3ccc(O)cc3)c3ccc(CCN4CCC(F)(F)C4)cc3)c3ccccn13)OCO2 [Example 36, N-{4-[2-(3,3-Difluoropyrrolidin-1-yl)ethyl]phenyl}-N-(4-hydroxyphenyl)-3-(6-{[(3R)-3-methyl-3,4-dihydroisoquinolin-2(1,H)-yl]carbonyl}-1,3-benzodioxol-5-yl)indolizine-1-carboxamide hydrochloride] | 12.6 | 49.7 |
| NCC[C@@H]1Cc2ccccc2CN1C(=O)c1cc2c(cc1-c1cc(C(=O)N(c3ccccc3)c3ccc(O)cc3)c3n1CCCC3)OCO2 [Example 37, 3-(6-{[(3S)-3-(2-Aminoethyl)-3,4-dihydroisoquinolin-2(1H)-yl]carbonyl}-1,3-benzodioxol-5-yl)-N-(4-hydroxyphenyl)-N-phenyl-5,6,7,8-tetrahydroindolizine-1-carboxamide hydrochloride] | 2.9 | 24.7 |
| O=C(c1cc(-c2cc3c(cc2C(=O)N2Cc4ccccc4C[C@H]2CCCN2CCOCC2)OCO3)n2c1CCCC2)N(c1ccccc1)c1ccc(O)cc1 [Example 38, N-(4-Hydroxyphenyl)-3-(6-{[(3R)-3-[3-(morpholin-4-yl)propyl]-3,4-dihydroisoquinolin-2(1H)-yl]carbonyl}-1,3-benzodioxol-5-yl)-N-phenyl-5,6,7,8-tetrahydroindolizine-1-carboxamide hydrochloride] | 4.6 | 9.52 |
| Cc1cc(N(C(=O)c2cc(-c3cc4c(cc3C(=O)N3Cc5ccccc5C[C@H]3C)OCO4)n3ccccc23)c2ccc(O)cc2)cc(C)n1 [Example 39, N-(2,6-Dimethylpyridin-4-yl)-N-(4-hydroxyphenyl)-3-(6-{[(3R)-3-methyl-3,4-dihydroisoquinolin-2(1H)-yl]carbonyl}-1,3-benzodioxol-5-yl)indolizine-1-carboxamide hydrochloride] | 4.6 | 26.3 |
| C[C@@H]1Cc2ccccc2CN1C(=O)c1cc2c(cc1-c1cc(C(=O)N(c3ccccc3)c3ccc(O)cc3)c3n1CCCC3)OCO2 [Example 40, N-(4-Hydroxyphenyl)-3-(6-{[(3R)-3-methyl-3,4-dihydroisoquinolin-2(1H)-yl]carbonyl}-1,3-benzodioxol-5-yl)-N-phenyl-5,6,7,8-tetrahydroindolizine-1-carboxamide] | 6 | 49 |
| O=C(c1cc(-c2cc3c(cc2C(=O)N2Cc4ccccc4C[C@H]2CCN2CCCC(F)(F)C2)OCO3)n2c1CCCC2)N(c1ccccc1)c1ccc(O)cc1 [Example 41, 3-(6-{[(3S)-3-[2-(3,3-Difluoropiperidin-1-yl)ethyl]-3,4-dihydroiso-quinolin-2(1H)-yl]carbonyl}-1,3-benzodioxol-5-yl)-N-(4-hydroxyphenyl)-N-phenyl-5,6,7,8-tetrahydroindolizine-1-carboxamide hydrochloride] | 41.5 | 294 |
| C[C@@H]1Cc2ccccc2CN1C(=O)c1cc2c(cc1-c1cc(C(=O)N(c3ccncc3)c3ccc(O)cc3)c3n1CCCC3)OCO2 [Example 42, N-(4-Hydroxyphenyl)-3-(6-{[(3R)-3-methyl-3,4-dihydroisoquinolin-2(1H)-yl]carbonyl}-1,3-benzodioxol-5-yl)-N-(pyridin-4-yl)-5,6,7,8-tetrahydro-indolizine-1-carboxamide hydrochloride] | 5.1 | 57.6 |
| O=C(c1cc(-c2cc3c(cc2C(=O)N2Cc4ccccc4C[C@H]2CCNCC(F)F)OCO3)n2c1CCCC2)N(c1ccccc1)c1ccc(O)cc1 [Example 43, 3-(6-{[(3S)-3-{2-[(2,2-Difluoroethyl)amino]ethyl}-3,4-dihydroisoquinolin-2(1H)-yl]carbonyl}-1,3-benzodioxol-5-yl)-N-(4-hydroxyphenyl)-N-phenyl-5,6,7,8-tetrahydroindolizine-1-carboxamide] | 4.8 | 26 |
